# Measurements from the NIST ThermoML archive (doi:10.1016/j.fluid.2014.06.024).
# Numbers after ± are expanded uncertainties.
# Assay: molar heat capacity at constant pressure; xn = mol fraction of the nth substance listed
# Conditions: 101 kPa, Liquid, Small sample (50 mg) DSC
structure (smiles),measurement,setting,value
"Cc1ccccc1C [1,2-dimethylbenzene] + C1CCOCC1",molar heat capacity at constant pressure,"298.15 K, x2 = 0.0918",184.41 ± 2.9 J/K/mol
same,molar heat capacity at constant pressure,"298.15 K, x2 = 0.1317",183.03 ± 2.8 J/K/mol
same,molar heat capacity at constant pressure,"298.15 K, x2 = 0.1765",181.48 ± 2.8 J/K/mol
same,molar heat capacity at constant pressure,"298.15 K, x2 = 0.2108",180.29 ± 2.8 J/K/mol
same,molar heat capacity at constant pressure,"298.15 K, x2 = 0.2543",178.76 ± 2.8 J/K/mol
same,molar heat capacity at constant pressure,"298.15 K, x2 = 0.2876",177.59 ± 2.8 J/K/mol
same,molar heat capacity at constant pressure,"298.15 K, x2 = 0.3105",176.77 ± 2.7 J/K/mol
same,molar heat capacity at constant pressure,"298.15 K, x2 = 0.3651",174.81 ± 2.7 J/K/mol
same,molar heat capacity at constant pressure,"298.15 K, x2 = 0.4187",172.86 ± 2.7 J/K/mol
same,molar heat capacity at constant pressure,"298.15 K, x2 = 0.4498",171.71 ± 2.7 J/K/mol
same,molar heat capacity at constant pressure,"298.15 K, x2 = 0.491",170.18 ± 2.6 J/K/mol
same,molar heat capacity at constant pressure,"298.15 K, x2 = 0.5217",169.03 ± 2.6 J/K/mol
same,molar heat capacity at constant pressure,"298.15 K, x2 = 0.5518",167.88 ± 2.6 J/K/mol
same,molar heat capacity at constant pressure,"298.15 K, x2 = 0.5871",166.53 ± 2.6 J/K/mol
same,molar heat capacity at constant pressure,"298.15 K, x2 = 0.6218",165.19 ± 2.6 J/K/mol
same,molar heat capacity at constant pressure,"298.15 K, x2 = 0.6617",163.62 ± 2.5 J/K/mol
same,molar heat capacity at constant pressure,"298.15 K, x2 = 0.6901",162.5 ± 2.5 J/K/mol
same,molar heat capacity at constant pressure,"298.15 K, x2 = 0.7219",161.23 ± 2.5 J/K/mol
same,molar heat capacity at constant pressure,"298.15 K, x2 = 0.7561",159.85 ± 2.5 J/K/mol
same,molar heat capacity at constant pressure,"298.15 K, x2 = 0.7918",158.39 ± 2.5 J/K/mol
same,molar heat capacity at constant pressure,"298.15 K, x2 = 0.8231",157.11 ± 2.4 J/K/mol
same,molar heat capacity at constant pressure,"298.15 K, x2 = 0.8651",155.36 ± 2.4 J/K/mol
same,molar heat capacity at constant pressure,"298.15 K, x2 = 0.8902",154.31 ± 2.4 J/K/mol
same,molar heat capacity at constant pressure,"298.15 K, x2 = 0.9234",152.9 ± 2.4 J/K/mol
same,molar heat capacity at constant pressure,"303.15 K, x2 = 0.0918",186 ± 2.9 J/K/mol
same,molar heat capacity at constant pressure,"303.15 K, x2 = 0.1317",184.64 ± 2.9 J/K/mol
same,molar heat capacity at constant pressure,"303.15 K, x2 = 0.1765",183.1 ± 2.8 J/K/mol
same,molar heat capacity at constant pressure,"303.15 K, x2 = 0.2108",181.92 ± 2.8 J/K/mol
same,molar heat capacity at constant pressure,"303.15 K, x2 = 0.2543",180.4 ± 2.8 J/K/mol
same,molar heat capacity at constant pressure,"303.15 K, x2 = 0.2876",179.23 ± 2.8 J/K/mol
same,molar heat capacity at constant pressure,"303.15 K, x2 = 0.3105",178.42 ± 2.8 J/K/mol
same,molar heat capacity at constant pressure,"303.15 K, x2 = 0.3651",176.47 ± 2.7 J/K/mol
same,molar heat capacity at constant pressure,"303.15 K, x2 = 0.4187",174.53 ± 2.7 J/K/mol
same,molar heat capacity at constant pressure,"303.15 K, x2 = 0.4498",173.38 ± 2.7 J/K/mol
same,molar heat capacity at constant pressure,"303.15 K, x2 = 0.491",171.85 ± 2.7 J/K/mol
same,molar heat capacity at constant pressure,"303.15 K, x2 = 0.5217",170.7 ± 2.6 J/K/mol
same,molar heat capacity at constant pressure,"303.15 K, x2 = 0.5518",169.56 ± 2.6 J/K/mol
same,molar heat capacity at constant pressure,"303.15 K, x2 = 0.5871",168.2 ± 2.6 J/K/mol
same,molar heat capacity at constant pressure,"303.15 K, x2 = 0.6218",166.86 ± 2.6 J/K/mol
same,molar heat capacity at constant pressure,"303.15 K, x2 = 0.6617",165.29 ± 2.6 J/K/mol
same,molar heat capacity at constant pressure,"303.15 K, x2 = 0.6901",164.16 ± 2.5 J/K/mol
same,molar heat capacity at constant pressure,"303.15 K, x2 = 0.7219",162.89 ± 2.5 J/K/mol
same,molar heat capacity at constant pressure,"303.15 K, x2 = 0.7561",161.5 ± 2.5 J/K/mol
same,molar heat capacity at constant pressure,"303.15 K, x2 = 0.7918",160.04 ± 2.5 J/K/mol
same,molar heat capacity at constant pressure,"303.15 K, x2 = 0.8231",158.75 ± 2.5 J/K/mol
same,molar heat capacity at constant pressure,"303.15 K, x2 = 0.8651",156.99 ± 2.4 J/K/mol
same,molar heat capacity at constant pressure,"303.15 K, x2 = 0.8902",155.93 ± 2.4 J/K/mol
same,molar heat capacity at constant pressure,"303.15 K, x2 = 0.9234",154.52 ± 2.4 J/K/mol
same,molar heat capacity at constant pressure,"308.15 K, x2 = 0.0918",187.56 ± 2.9 J/K/mol
same,molar heat capacity at constant pressure,"308.15 K, x2 = 0.1317",186.23 ± 2.9 J/K/mol
same,molar heat capacity at constant pressure,"308.15 K, x2 = 0.1765",184.72 ± 2.9 J/K/mol
same,molar heat capacity at constant pressure,"308.15 K, x2 = 0.2108",183.55 ± 2.8 J/K/mol
same,molar heat capacity at constant pressure,"308.15 K, x2 = 0.2543",182.06 ± 2.8 J/K/mol
same,molar heat capacity at constant pressure,"308.15 K, x2 = 0.2876",180.91 ± 2.8 J/K/mol
same,molar heat capacity at constant pressure,"308.15 K, x2 = 0.3105",180.11 ± 2.8 J/K/mol
same,molar heat capacity at constant pressure,"308.15 K, x2 = 0.3651",178.18 ± 2.8 J/K/mol
same,molar heat capacity at constant pressure,"308.15 K, x2 = 0.4187",176.26 ± 2.7 J/K/mol
same,molar heat capacity at constant pressure,"308.15 K, x2 = 0.4498",175.13 ± 2.7 J/K/mol
same,molar heat capacity at constant pressure,"308.15 K, x2 = 0.491",173.62 ± 2.7 J/K/mol
same,molar heat capacity at constant pressure,"308.15 K, x2 = 0.5217",172.47 ± 2.7 J/K/mol
same,molar heat capacity at constant pressure,"308.15 K, x2 = 0.5518",171.34 ± 2.6 J/K/mol
same,molar heat capacity at constant pressure,"308.15 K, x2 = 0.5871",170 ± 2.6 J/K/mol
same,molar heat capacity at constant pressure,"308.15 K, x2 = 0.6218",168.66 ± 2.6 J/K/mol
same,molar heat capacity at constant pressure,"308.15 K, x2 = 0.6617",167.1 ± 2.6 J/K/mol
same,molar heat capacity at constant pressure,"308.15 K, x2 = 0.6901",165.98 ± 2.6 J/K/mol
same,molar heat capacity at constant pressure,"308.15 K, x2 = 0.7219",164.71 ± 2.5 J/K/mol
same,molar heat capacity at constant pressure,"308.15 K, x2 = 0.7561",163.33 ± 2.5 J/K/mol
same,molar heat capacity at constant pressure,"308.15 K, x2 = 0.7918",161.87 ± 2.5 J/K/mol
same,molar heat capacity at constant pressure,"308.15 K, x2 = 0.8231",160.58 ± 2.5 J/K/mol
same,molar heat capacity at constant pressure,"308.15 K, x2 = 0.8651",158.83 ± 2.5 J/K/mol
same,molar heat capacity at constant pressure,"308.15 K, x2 = 0.8902",157.78 ± 2.4 J/K/mol
same,molar heat capacity at constant pressure,"308.15 K, x2 = 0.9234",156.37 ± 2.4 J/K/mol
